The source of these data is US9493401B2, “Glutamate derivatives for topical use as immunomodulatory active ingredient” (PIERRE FABRE DERMO-COSMETIQUE, priority 2012, dated 2016).

Read-outs that look alike come from different tables or passages of the source.

The subject of one data set is human CD4+ lymphocytes. The data set can be described thus: Secretion of cytokines by human CD4+ lymphocytes stimulated with SEB (immuno-regulatory activity). Particulars: Lymphocyte, SEB 300 ng/ml, 24 h. The class given is cell-based.
The next data set deals with HaCaT keratinocytes. The data set can be described thus: Secretion of IL8 by HaCaT keratinocytes stimulated with TNFα (anti-inflammatory activity). It is filed as cell-based, human. Conditions: TNFα 10 ng/ml, 24 h; FIG. 4; in words. The method, then: The dosage of interleukin 8 is carried out from a sample taken from the supernatant according to the following method: • IL8 is evaluated by ELISA, Duoset IL8 (Ref. DY208E, R&D Systems).

The subject of a further data set is NHEK keratinocytes. The data set can be described thus: Gene expression of inflammatory markers of atopic dermatitis in stimulated NHEK keratinocytes (PCR-Array). It is filed as cell-based, human. Particulars: 24 h, vs stimulated control. The method, then: The primary keratinocytes (NHEK, normal human epidermal keratinocytes) distributed in 24-well plates are preincubated for 1 hour with the active ingredients and then stimulated for 24 hours with a cocktail of 4 agonists giving the possibility of creating in vitro the physio-pathological environment of atopic dermatitis: 100 ng/ml IL4+100 ng/ml IL13+1 μg/ml Poly I:C+5 μg/ml Pam3CSK4: this model gives the possibility of inducing the inflammation mediated by the overexpressed Th2 cytokines in DA (IL4, IL13) and by the bacterial components (mimicked by Pam3CSK4, TLR-2 ligand) and viral components (mimicked by Poly I:C, TLR-3 ligand) of DA. Analysis of the gene expression of the markers of DA is conducted in a PCR-Array with 48 genes and repeated on 3 different donors of NHEK.
For the whole of the markers, the RQ (Relative Quantity) of less than 0.5, at 5 h or 24 h, indicates significant inhibition: • inhibition of the TSLP marker involved in the lymphocyte Th2 polarization and specific of AD; • inhibition of the inflammatory cytokines IL1A, IL8, CSF2, IFNB1, VEGF; • inhibition of the chemokines CCL, CXCL, involved in the recruitment, cutaneous infiltration, and activation of the inflammatory cells (leucocytes, lymphocytes, Th1 and Th2 lymphocytes, monocytes).

[1] abbreviates: read-out: inhibition of the production of IL-2.
[2] abbreviates: read-out: inhibition of the production of IL-4.
Where [3] appears, read: read-out: inhibition of the production of IL-17.

In the case of `CCCCCCCCCOC(=O)CC[C@H](N)C(=O)O` [Example 3, 5-(n-nonyl)-L-glutamate or 2-amino-5-(nonyloxy)-5-oxopentanoic acid], the inhibition at 300 µM in the data set on human CD4+ lymphocytes (setting [1]) worked out at 63%; in the data set with human CD4+ lymphocytes (setting [2]) it was 70%; in the data set with human CD4+ lymphocytes (setting [3]), 54%. Besides, the “anti-inflammatory activity towards the production of IL-8” value with HaCaT keratinocytes was “anti-inflammatory activity”.

`CCCCCCCCCCCCOC(=O)CC[C@H](N)C(=O)O` [Example 4, 5-(n-dodecyl)-L-glutamate or 2-amino-5-(dodecyloxy)-5-oxopentanoic acid] had a melting point of 189.9 °C.

`CCCCCCCCCCCCCCOC(=O)CC[C@H](N)C(=O)O` [Example 5, 5-(n-tetradecyl)-L-glutamate or 2-amino-5-oxo-5(tetradecyl)pentanoic acid] yielded a melting point of 184.8 °C.

Take `CCCCCCCCCCCCCCCCOC(=O)CC[C@H](N)C(=O)O` [Example 6, 5-(n-hexadecyl)-L-glutamate or 2-amino-5-(hexadecyloxy)-5-oxopentanoic acid]: the melting point worked out at 179.3 °C.

Regarding `CCCCCCCCCCCCCCCCCCOC(=O)CC[C@H](N)C(=O)O` [Example 7, 5-(n-octadecyl)-L-glutamate or 2-amino-5-(octadecyloxy)-5-oxopentanoic acid], the melting point worked out at 180.5 °C.

Turning to `CC(C)CCCC(C)CCOC(=O)CC[C@H](N)C(=O)O` (stereo partly drawn) [Example 8, 5-(3,7-dimethyloctyl)-L-glutamate or 2-amino-5(3,7-dimethyloctyloxy)-5-oxo-pentanoic acid], the melting point amounted to 150.8 °C. Besides, in the data set on human CD4+ lymphocytes (setting [1]), the inhibition at 300 µM worked out at 29%.

Turning to `CCCCC(CC)COC(=O)CC[C@H](N)C(=O)O` (stereo partly drawn) [Example 12, 5-(2-ethylhexyl)-L-glutamate or 2-amino-5(2-ethylhexyloxy)-5-oxopentanoic acid], the melting point stood at 157.9 °C. In addition, in the data set on NHEK keratinocytes (100 μM), the “CCL2 (MCP-1) gene expression” value came to 0.48 RQ, the “CCL3 (MIP-1α) gene expression” value is reported as 0.51 RQ, the “CCL4 (MIP-1β) gene expression” value is 0.14 RQ and the “CCL5 (RANTES) gene expression” value came to 0.42 RQ. In the data set with NHEK keratinocytes (100 μM), the “CCL20 (MIP-3α) gene expression” value came to 0.13 RQ, the “CSF2 (GMCSF) gene expression” value was 1.55 RQ, the “CXCL1 (GRO-α) gene expression” value is 0.33 RQ and the “CXCL2 (MIP-2α) gene expression” value is given as 0.06 RQ. In addition, in the data set on NHEK keratinocytes (100 μM), the “CXCL9 (Gamma-interferon-induced monokine) gene expression” value is given as 0.20 RQ, the “CXCL10 (IP-10) gene expression” value is given as 0.18 RQ, the “CXCL11 (I-TAC) gene expression” value amounted to 0.14 RQ and the “IFNB1 (Interferon beta 1) gene expression” value was found to be 0.19 RQ. In the data set with NHEK keratinocytes (100 μM), the “IL1A (Interleukin 1, alpha) gene expression” value was determined as 0.53 RQ; the “IL8 (Interleukin 8) gene expression” value stood at 0.29 RQ; the “TSLP (Thymic stromal lymphopoietin) gene expression” value is listed as 0.20 RQ; the “VEGFC (Vascular endothelial growth factor C) gene expression” value came to 0.20 RQ. Besides, in the data set on NHEK keratinocytes (300 μM), the “CCL3 (MIP-1α) gene expression” value is 0.06 RQ, the “CCL4 (MIP-1β) gene expression” value stood at 0.02 RQ, the “CCL5 (RANTES) gene expression” value is given as 0.20 RQ and the “CCL20 (MIP-3α) gene expression” value was 0.13 RQ. In the data set on NHEK keratinocytes (300 μM), the “CSF2 (GMCSF) gene expression” value was determined as 0.33 RQ, the “CXCL1 (GRO-α) gene expression” value is reported as 0.36 RQ, the “CXCL2 (MIP-2α) gene expression” value is 0.32 RQ and the “CXCL9 (Gamma-interferon-induced monokine) gene expression” value was 0.29 RQ. Also, in the data set with NHEK keratinocytes (300 μM), the “CXCL10 (IP-10) gene expression” value was 0.06 RQ; the “CXCL11 (I-TAC) gene expression” value is 0.15 RQ; the “IFNB1 (Interferon beta 1) gene expression” value was 0.26 RQ; the “IL1A (Interleukin 1, alpha) gene expression” value was 0.53 RQ. For the same molecule, in the data set with NHEK keratinocytes (300 μM), the “IL8 (Interleukin 8) gene expression” value is listed as 0.18 RQ, the “TSLP (Thymic stromal lymphopoietin) gene expression” value was 0.54 RQ and the “VEGFC (Vascular endothelial growth factor C) gene expression” value is listed as 0.50 RQ. Moreover, the inhibition at 300 µM in the data set with human CD4+ lymphocytes (read-out: inhibition of the production of IFNγ) was 77%. The inhibition at 300 µM in the data set with human CD4+ lymphocytes (read-out: inhibition of the production of IL1β) is 80%. The inhibition at 300 µM in the data set with human CD4+ lymphocytes (read-out: inhibition of the production of IL5) worked out at 77%. In addition, in the data set with human CD4+ lymphocytes (read-out: inhibition of the production of IL6), the inhibition at 300 µM was determined as 44%. Besides, the inhibition at 300 µM in the data set with human CD4+ lymphocytes (read-out: inhibition of the production of IL10) was determined as 87%. Moreover, the inhibition at 300 µM in the data set on human CD4+ lymphocytes (read-out: inhibition of the production of IL13) was 84%. Further, the inhibition at 300 µM in the data set with human CD4+ lymphocytes (setting [1]) amounted to 43%. In addition, the inhibition at 300 µM in the data set on human CD4+ lymphocytes (setting [2]) worked out at 69%. In the data set on human CD4+ lymphocytes (setting [3]), the inhibition at 300 µM was determined as 86%. In addition, the inhibition at 300 µM with human CD4+ lymphocytes (read-out: inhibition of the production of TNFα) was found to be 18%.

Consider `N[C@@H](CCC(=O)O)C(=O)O` [glutamic acid, reference compound], for which, in the data set with HaCaT keratinocytes, the “anti-inflammatory activity towards the production of IL-8” value is given as “not again found”.

As usually defined, the inhibition is the drop in the measured response relative to a control, in per cent. By melting point is commonly meant the temperature of the solid-liquid transition.
